Experimental data reported in patent US20210179714A1, “Inhibition of CTLA-4 and/or PD-1 For Regulation of T Cells” (MEMORIAL SLOAN KETTERING CANCER CENTER, priority 2017, published 2021).

Key:
4PD1^hi [1] = assay: 4PD1hi and Treg frequency/phenotype in tumor-bearing mice under treatment (FACS, immunofluorescence); assay type: in vivo, mouse
Method: (§1) B16 melanoma cells were implanted intradermally (10^5 cells, for tumor-growth and survival analyses) or subcutaneously in matrigel (Matrigel Matrix Growth Factor Reduced, Becton Dickinson) (2×10^5 cells, for immune-cell infiltrate analyses) in C57BL/6J mice. Vaccination with VRP-TRP2 (AlphaVax Inc.) was performed by injection of 1×10^6 virus-like replicon particles (VRPs) (Zappasodi and Merghoub, 2015) expressing mouse TRP2 into the plantar surface of each footpad for 3 times 1 week apart, starting 3 days after tumor implantation (Avogadri et al., 2014). Treatment with anti-CTLA-4 (clone 9D9, 100 μg or 300 μg/injection), anti-PD-1 (clone RMP1-14, 250 μg/injection), or the matched isotype IgGs (BioXcell) was started 3-4 (optimal treatment) or 6-7 days (suboptimal treatment) after tumor implantation for respectively 5 or 4 intraperitoneal (i.p.) administrations 3 days apart. Immunization with sRBC was performed i.p. with 200 μl 10% volume/volume sRBC solution (Innovative Research). The Bcl6 inhibitor 79.6 (Calbiochem) was administered daily i.p. in 10% DMSO at 50 mg/kg (Cerchietti et al., 2010). TUBO breast carcinoma cells were implanted subcutaneously in Balb/c mice (10^6 cells/mouse) and anti-CTLA-4 treatment was started 10 days after. Animals were monitored at least twice a week and were considered tumor-free until intradermal lesions were palpable.
(§2) Tumors were dissociated after 30 min incubation with Liberase TL and DNAse I (Roche) to obtain single-cell suspensions. When tumor mass exceeded 0.1 gr, immune-cell infiltrates were enriched by Percoll (GE Healthcare) gradient centrifugation. Cells from tumor-draining lymph nodes and spleens were prepared by mechanical dissociation on 40 μM filters and RBC lysis (ACK buffer, Lonza). Mouse PB was collected by retro-orbital puncture and RBC were lysed with Pharm Lyse Buffer (BD Bioscences). […]

B16 melanoma = assay: Tumor growth and tumor-free survival in tumor-bearing mice; assay type: in vivo, mouse
Method: as §1

4PD1^hi [2] = assay: FACS monitoring of circulating 4PD1hi in advanced NSCLC patients during immune checkpoint blockade; assay type: in vivo, human
Method: To evaluate the role of 4PD1^hi in the development of anti-tumor immune responses in vivo, we monitored this cell population in cancer patients treated with immune checkpoint blockade. To detect human PD-1, we employed a mAb whose binding is not cross-blocked by the therapeutic αPD-1 Abs nivolumab or pembrolizumab (FIG. 7A). […] We thus explored in mice the capability of αCTLA-4 monotherapy to increase 4PD1^hi in a dose-dependent manner, by treating with 100 μg (standard dose in mice) or a higher amount (300 μg) of αCTLA-4 (FIG. 8B). […] Furthermore, in different mouse strains (C57BL/6J and Balb/c) we observed that the presence of tumor contributes to anti-CTLA-4-mediated induction of 4PD1^hi.
(§3) All patients and healthy donors signed an approved informed consent before providing tissue samples. Patient samples were collected on a tissue-collection protocol approved by the MSKCC Institutional Review Board and processed as described (Holmgaard et al., 2015).
as §2, with “Lonza).” for “Lonza). Mouse PB was collected by retro-orbital puncture and RBC were lysed with Pharm Lyse Buffer (BD Bioscences).”

4PD1^hi [3] = assay: FACS monitoring of circulating 4PD1hi / CD4+ T-cell subsets in advanced melanoma patients during immune checkpoint blockade; assay type: in vivo, human; settings: for circulating 4PD1hi frequency: metastatic melanoma patients, ipilimumab n=47, pembrolizumab n=52, relative to baseline
Excerpt: We further confirmed the results achieved in NSCLC patients in larger cohorts of metastatic melanoma patients treated with ipilimumab (FIG. 8C, αCTLA-4, n=47) or the αPD-1 pembrolizumab (FIG. 8C, n=52, 50/52 upon relapse on ipilimumab). αCTLA-4 increased circulating 4PD1^hi, while administration of αPD-1 reduced their frequency (FIG. 8C). We further substantiated the capability of αPD-1 (pembrolizumab) to down-regulate 4PD1hi in an independent cohort of melanoma patients (Huang et al., 2017) (FIG. 8F).
as §3
Tumors were dissociated after 30 min incubation with Liberase TL and DNAse I (Roche) to obtain single-cell suspensions. When tumor mass exceeded 0.1 gr, immune-cell infiltrates were enriched by Percoll (GE Healthcare) gradient centrifugation. Cells from tumor-draining lymph nodes and spleens were prepared by mechanical dissociation on 40 μM filters and RBC lysis (ACK buffer, Lonza). Mouse PB was collected by retro-orbital puncture and RBC were lysed with Pharm Lyse Buffer (BD Bioscences). Surface staining of mouse cells was performed after 15 min pre-incubation with anti-mouse CD16/CD32 Ab (clone 2.4G2; BD Biosciences) to block FcγR binding, with panels of appropriately diluted fluorochrome-conjugated Abs (from BD Biosciences, eBioscience or Invitrogen) against the following mouse proteins in different combinations: CD45 (clone 30-F11), CD45.1 (clone A20), CD4 (clone RM4-5), CD8a (clone 5H10), Thy1.1 (clone OX-7), B220 (RA3-6B2), CD19 (clone 1D3), PD-1 (RMP1-30), CD44 (clone IM7), CD62L (clone MEL-14), CD25 (clone PC61.5), CD86 (clone GL-1), I-A/I-E (clone M5/114.15.2), PD-L1 (clone MIH5), ICOS (clone C398.4A), CXCR5 (biotin-conjugated clone 2G8, followed by PE-/APC-labeled streptavidin staining), and a eFluor506 fixable viability dye. For intracellular staining, mouse cells were fixed and permeabilized (Foxp3 fixation/permeabilization buffer, eBioscience) and incubated with appropriately diluted PECF594-labeled anti-Bcl6 (clone K112-91, BD Biosciences), PECy7-labeled anti-Ki67 (clone B56, BD Biosciences), and FITC-labeled anti-Foxp3 (clone FJK-16s, eBioscience) Abs. Surface staining of human cells was performed in the presence of FcγR Blocking reagent (Miltenyi Biotec) with proper dilutions of fluorochrome-conjugated Abs (from BD Biosciences, eBioscience or Tonbo) against the following human proteins in different combinations: CD45 (clone HI30), CD45RA (clone HI100), CD4 (clone RPA-T4), PD-1 (clone MIH4 or J105 in anti-PD-1-treatment naïve samples), CD25 (clone MA251), ICOS (clone ISA-3), CXCR5 (clone RF8B2), CD19 (clone HIB19), and CD86 (clone FUN-1), and a eFluor506 fixable viability dye. For intracellular staining, human cells were fixed and permeabilized (Foxp3 fixation/permeabilization buffer, eBioscience) and then incubated with appropriately diluted eFuor450-labeled anti-Foxp3 (clone PCH101, eBiosciences), PECF594-labeled anti-Bcl6 (clone K112-91), and APC-labeled anti-CTLA-4 (clone BNI3, BD Biosciences) Abs.

circulating B cells = assay: CD86 expression on circulating B cells of metastatic melanoma patients; assay type: in vivo, human; settings: ipilimumab 3 mg/kg q3 wks, n=16
Method: as §3, §2

O=C(O)CC(C(=O)O)n1c(O)c(C2=c3cc(Br)ccc3=NC2=O)sc1=S (stereo not shown) [Bcl6 inhibitor]
intra-tumor Tregs (4PD1^hi [1]; Bcl6 inhibition): favored intra-tumor Treg expansion | total CD4+ or CD8+ T-cell intra-tumor infiltration (4PD1^hi [1]; Bcl6 inhibition): did not find significant increases | 4PD1hi in the periphery and at the tumor site (4PD1^hi [1]; Bcl6 inhibitor 50 mg/kg daily i.p.): effective in controlling | anti-tumor activity in RAG KO mice (B16 melanoma; RAG KO mice lacking mature T and B cells, Bcl6 inhibition): completely lost | tumor growth (B16 melanoma; WT mice, Bcl6 inhibitor, also in the context of CTLA-4 blockade and high baseline 4PD1hi): modestly (but significantly) delayed tumor growth

ipilimumab
circulating 4PD1hi (4PD1^hi [2]; NSCLC patients, ipilimumab 1 or 3 mg/kg added to nivolumab 1 mg/kg, compared with nivolumab monotherapy): proportional increases | ICOS expression in CD4+ T cell subsets (4PD1^hi [3]; melanoma cohort, 4PD1neg, Tregs and 4PD1hi): induced ICOS expression | circulating 4PD1hi frequency (4PD1^hi [3]): increased | CD86 on circulating B cells (circulating B cells): up-regulation

nivolumab
peripheral 4PD1hi frequency (4PD1^hi [2]; metastatic NSCLC patients, nivolumab monotherapy (nivo3, 3 mg/kg q2 wks, n=10), relative to baseline): reduced

pembrolizumab
4PD1hi frequency, independent cohort (4PD1^hi [3]; independent cohort of melanoma patients, pembrolizumab 2 mg/kg q3 wks, n=18): down-regulate | dose dependence of 4PD1hi down-regulation (4PD1^hi [3]; melanoma patients, higher dose of pembrolizumab (2 mg/kg or 10 mg/kg)): more efficient at down-regulating | circulating 4PD1hi frequency (4PD1^hi [3]): reduced
